# Reference: PubChem BioAssay AID2305 (GlaxoSmithKline (GSK), 2010)
# Test system: P. falciparum 3D7 growth, pLDH absorbance
# Experiment: blood-stage malaria parasite growth potency – strain 3D7, dose response (AID 2305)
row,SMILES,IC50
1,COc1cc(C(=O)NC2CCC(CN3CCC(c4c[nH]c5ccccc45)CC3)CC2)cc(Cl)n1 (stereo not given),690 nM
2,COc1ccc(Cl)cc1-c1nc(C(=O)NCCN2CCCCC2)c(C(C)C)s1,750 nM
3,COc1ccc(CNC2CCN(C)CC2)cc1-c1ccc(S(=O)(=O)NCc2cccnc2)s1,840 nM
4,COc1cccc(-c2nc3c(N4CCN(c5ccncc5)CC4)cccc3n2CC2CCCCCN2)n1 (stereo not given),1060 nM
5,COc1ccc(NC(=O)CCNc2cc(C)nc(NCc3cccc(C)c3)n2)cc1,1090 nM
6,Cc1cccc(C)c1C1CCN(C2CCC(NC(=O)/C=C/c3ccccc3)CC2)CC1 (stereo not given),580 nM
7,c1cc(CNC2CCCC2)cc(-c2ccc(CNc3ccc4ncccc4c3)cc2)c1,770 nM
8,CCCN(CCC)C(=O)c1cc(C(=O)N[C@@H](Cc2ccccc2)[C@H](O)CNCc2cccc(C(F)(F)F)c2)cc(N2CCCCS2(=O)=O)c1,880 nM
9,Cc1cc(C(=O)OCC(=O)Nc2c(C)n(C)n(-c3ccccc3)c2=O)c(C)n1-c1ccc(F)cc1,50 nM
10,COc1ccccc1CC1CCCN(C2CCC(NC(=O)c3cc4ccccc4[nH]3)CC2)C1 (stereo not given),840 nM
11,CN1CCCN(Cc2ccc(-c3cccc(NC(=O)c4cccc(Cl)c4)c3)cc2)CC1,840 nM
12,CC(C)(CN)c1nc(-c2ccc(Cl)c(O)c2)c(-c2ccnc(N)n2)[nH]1,980 nM
13,Cc1nc(N)nc(N)c1-c1ccc(Cl)c(Cl)c1,80 nM
14,O=C(Nc1cc(C(F)(F)F)ccc1-n1cncn1)C1(c2ccccc2)CC1,60 nM
15,Cc1cccc2[nH]c(-c3cccc(-c4ccc(NC(=O)C(C)CN5CCN(C)CC5)cc4)c3)nc12 (stereo not given),180 nM
16,Cc1ccc(CNC(=O)[C@H](CC(C)C)Nc2cc(C)nc(Nc3ccccc3)n2)cc1,1770 nM
17,CNC(=O)C1Cc2c([nH]c3ccc(Cl)cc23)C2(CCN(CCc3ccccc3)CC2)N1 (stereo not given),890 nM
18,COCc1cccc(-c2cc(-c3ccc(S(C)(=O)=O)cc3)cnc2N)c1,1000 nM
19,CC(CN)OCn1cnc2c(N)ncnc21 (stereo not given),230 nM
20,CC(C)(C)c1ccc2nccc(Nc3cccc(O)c3)c2c1,970 nM
21,COc1ccc(-c2ccc(NC(=O)c3ccc(C#N)cc3)cc2)cc1CN(C)CCO,630 nM
22,O=C(Nc1ccc(-c2nc3ccccc3[nH]2)cc1)c1ccc(N2CCOCC2)c([N+](=O)[O-])c1,790 nM
23,CC(=NNC(N)=O)C1=C(O)C(c2ccccc2)N(C2CCCCC2)C1=O (stereo not given),30 nM
24,CCNc1cc(C(=O)N[C@@H](Cc2ccccc2)[C@H](O)CNCc2cc(OC)cc(OC)c2)cc(N2CCCC2=O)c1,740 nM
25,Cc1ccnc(NC(=O)c2cc(-c3cccc([N+](=O)[O-])c3)nc3onc(C)c23)c1,890 nM

row,SMILES,IC50
1,COc1ccccc1-c1csc(C(=O)NC2CCCCN(Cc3ccc(C(C)(C)C)cc3)C2)c1 (stereo not given),1530 nM
2,CN(C)CCNC(=O)[C@H](Cc1ccccc1)NC(=O)c1ccc(O)c(-c2ccc(Cl)c(Cl)c2)c1,710 nM
3,c1ccc2[nH]c(Nc3ccc(Nc4nc5ccccc5[nH]4)cc3)nc2c1,780 nM
4,O=C(Cc1cnc[nH]1)Nc1ccc(-c2ccc(-c3nc4ccc(C(F)(F)F)cc4[nH]3)s2)cc1,660 nM
5,c1ccc2c(c1)ncc1c3ccccc3[nH]c21,870 nM
6,COc1ccccc1-n1c(SCC(=O)Nc2ccccc2F)nc2cccnc21,420 nM
7,CC1CCCN(Cc2c(O)ccc3c(=O)c(-c4nc5ccccc5s4)c(N)oc23)C1 (stereo not given),140 nM
8,CS(=O)(=O)N(CC(O)Cn1c2ccc(Cl)cc2c2cc(Cl)ccc21)c1ccccc1 (stereo not given),900 nM
9,CCNc1cc(C(=O)N[C@@H](Cc2ccccc2)[C@H](O)CN[C@H]2CCc3ccccc32)cc(N2CCCC2=O)c1,290 nM
10,O=C(NC1CCC1)C1CCN(C(c2ccc(Cl)cc2)c2ccc(Cl)cc2)CC1,560 nM
11,COc1ccc(Nc2ncc(Cl)c(Nc3cccnc3C(N)=O)n2)cc1N1CCN(C)CC1,230 nM
12,Cn1nccc1C(=O)NCCNCc1cccc(-c2ccc(-c3nc4ccccc4[nH]3)cc2)c1,470 nM
13,C=CCn1c(Sc2ccc(C#N)c([N+](=O)[O-])c2)nnc1-c1cccc(Cl)c1,300 nM
14,COc1ccc(CC(=O)Nc2ccc(-c3cccc(-c4nc5c(C)cccc5[nH]4)c3)cc2)cc1O,450 nM
15,O=C(/C=C/c1ccc(Cl)cc1)NCCCCCN1CCCC(C(=O)Nc2ccc(F)c(Cl)c2)C1 (stereo not given),1120 nM
16,C(=N\Nc1nccc2sc(-c3ccccc3)cc12)/c1cccnc1,820 nM
17,Cc1cc(NC(=O)Nc2cccc(C#N)c2)c2ccccc2n1,580 nM
18,COc1ccc2nccc(NCC3(O)CCN(CC(O)c4ccc5c(c4)NC(=O)CS5)CC3)c2n1 (stereo not given),830 nM
19,CC(C)c1cc(N)c2cc(NC(=O)COCC(=O)Nc3ccc4nc(C(C)C)cc(N)c4c3)ccc2n1,220 nM
20,CC(Cc1ccc(Oc2ccccc2)cc1)NCC(O)c1cccc(C(F)(F)F)c1 (stereo not given),670 nM
21,C=C(NC(=O)c1cc(C)cc(C)c1)C(=O)OC,170 nM
22,COc1ccc(CCCN2C(=O)C(c3ccccc3)(c3ccccc3)N=C2N)cc1,1050 nM
23,COc1cc(NCC(CN)Cc2ccc3c(c2)OCO3)nc2ccccc12 (stereo not given),820 nM
24,COc1ccc2nc(C)cc(Nc3ccc(N4CCN(C)CC4)cc3)c2c1,790 nM
25,O=C(/C=C/c1ccc(Cl)c(Cl)c1)NCCCCCN1CCC(NC(=O)c2ccc3ccccc3c2)CC1,1020 nM
